The values that follow come from article PMC10063609, “Discovery of novel cardiac troponin activators using fluorescence polarization-based high throughput screening assays” (Scientific Reports, 2023).

Like-named read-outs stand apart in the source and are kept apart here.

Data set [1] relates to bovine cardiac myofibrils. Kind of data set: NADH-coupled ATPase activity of isolated cardiac myofibrils. Particulars: sub-maximal activation (~70% of maximal), pCa 5.8. The data set is classed as biochemical.
Procedure: Bovine cardiac myofibrils (CMF) were freshly prepared from bovine ventricle as previously described[49]. The NADH-coupled ATPase assay was adapted to test the effects of drugs on bovine cardiac myofibrils[50]. Briefly, buffers with varying free [Ca^2+] were prepared by adding the appropriate concentrations of EGTA and CaCl2 calculated using the MAXCHELATOR software. ATPase assays for hits identified in the cTnI switch peptide and anchoring region screens were performed at pCa 6 and pCa 5.8, respectively. […] 20 μL Enzyme mix was added to individual wells using a 12-well multichannel pipette. Appropriate concentrations of drugs were added to each well and the plate was shaken at 1000 rpm for 5 min on a plate shaker and further incubated at room temperature for 10 min. Substrate mix was dispensed into each well using the Gilson PipetMax. The plate was briefly spun down to ensure removal of air bubbles. The reaction was followed by recording the fluorescence intensity of each well with excitation at 380 nm and emission at 470 nm, for 10 min scanning the plate every 30 s. The temperature was kept constant at 25 °C. ATPase rates were extracted by linear regression to datapoints in GraphPad Prism.
Another data set has as its target Ca2+-saturated cTnC (Homo sapiens, UniProt P63316). Kind of data set: ITC binding to full length Ca2+-saturated cTnC. Particulars: for Kd: means ± SEM, n = 3.
Data set [2] deals with demembranated human donor ventricular tissue. Kind of data set: Force-pCa titrations of demembranated human donor myocardium. Format: cell-based. The following applies: 100 μmol/L, 2 μm sarcomere length.
Procedure: We tested for the functional effects of hit compounds by measuring the calcium sensitivity of force development of chemically demembranated human donor ventricular tissue at 2 μm sarcomere length in the absence and in the presence of 100 μmol/L compounds (Fig. 6). Force-pCa (pCa = −log10[Ca^2+]) relations for each preparation was measured in the absence and in the presence of each compound, so that each muscle preparation served as its own control.
Briefly, each demembranated cardiac muscle strip underwent a control force-pCa titration in the absence of compounds with the sarcomere length adjusted to about 2 µm by laser diffraction. Drugs were freshly diluted in DMSO and added to physiological buffer solutions. The final DMSO concentration was held constant at 0.2% (v/v). Subsequently, demembranated human heart muscle strips were equilibrated in relaxing solution (pCa 7) containing the appropriate concentrations of drugs for 25 min at 22 °C and the force-pCa titration repeated. Thus, each cardiac muscle strip served as its own negative control and force data were normalized to the maximal force of each preparation in the absence of compounds.
The nature of data set [3]: Solubility in aqueous buffer. Format: physicochemical. The protocol:
Figure S2. […] D MSO stocks of NS5806 were diluted with assay
buffer to the indicated concentrations (fixed DMSO concentration of 0.1% (v/v)), potential
aggregates removed by ultra -centrifugation and the absorbance at 296 nm plotted against the
in aqueous buffers up to a concentration of at least 500 µmol/L. (B) Total fluorescent intensity
dose-response curves for Claramine (red) and Furamidine (green) in the presence of 2 nmol/L
(1 picture or pasted object on this page, not shown here)

Data set [4] has as its target interaction between cTnC and the anchoring region of cTnI (cTnIAR) (Homo sapiens, UniProt P63316). The experiment in a line: Fluorescence polarization HTS, binding and dose-response, cTnC/FAM-cTnIAR. Particulars: for FP at higher drug concentrations: > 10 μmol/L, potentially assay interference; for FP (mP): cTnIAR primary screen, single concentration 10 μmol/L; for Total fluorescence intensity of the assay mixture: concentrations of up to 100 μmol/L, 2 nmol/L FAM-cTnIAR, 5 nmol/L cTnC; for Effect on FP from the cTnC FAM-cTnIAR mixture: dose-response, concentration dependent (Fig. 2c).
Procedure: (§1) Each compound was tested at a concentration of 50 μmol/L and 10 μmol/L for the cTnISP and cTnIAR screen, respectively. Hits were defined as compounds that changed the average FP value more than five-times the standard deviation (SD) (Fig. 1d, red lines). Moreover, compounds that either increased or decreased the total fluorescence intensity (FI) more than five-times the SD were removed from further analysis, indicating either compound aggregation or unspecific interactions with the fluorophore or protein complex.
(§2) Libraries were reformatted from 96-well plates to Greiner 384-well black plates using a GILSON PipetMax. The plates were sealed with adhesive foil and stored at − 20 °C until further use. […] A total of 40 nL of 10 mmol/L compound stocks were transferred to each well using a Mosquito liquid handler system (final DMSO concentration of 0.1% (v/v)). The plates were incubated in the dark for 30 min at 25 °C, and the fluorescence polarization from each well was measured using a ClarioStar Plate reader with appropriate excitation and emission filter settings. Dose–response curves were constructed by serial dilution of compounds in DMSO and adding a fixed volume to a mixture of peptide and cTnC.
(§3) Fluorescence polarization dose–response and binding experiments were performed in Greiner 384-well black plates in assay buffer (20 mmol/L Tris–HCl pH 7, 100 mmol/L NaCl, 1 mmol/L CaCl2, 1 mmol/L DTT) at 25 °C.

Another data set has as its target cTnC-cTnIAR interaction (Homo sapiens, UniProt P63316). Kind of data set: ITC titration of unlabelled cTnIAR peptide into cTnC without or with compound.
Data set [5] concerns the target T1, interaction between cTnC and switch peptide of cTnI (cTnISP) (Homo sapiens, UniProt P63316). More on the design: method as in PMID 33315370. The following applies: printed in Fig. 1c; assay previously published; cited from earlier work.
Data set [6] deals with T1, interaction between cTnC and switch peptide of cTnI (cTnISP). The experiment in a line: Fluorescence polarization HTS and dose-response, cTnC/FAM-cTnISP. The data set is classed as binding. The following applies: cTnISP primary screen, single concentration 50 μmol/L.
Procedure: as §1, §2, §3
Another data set has as its system CcTnC. Set-up: method as in PMID 11320096, PMID 10913289. Particulars: cited from earlier work.
Data set [7] concerns CcTnC and cTnIAR interaction. Set-up: method as in PMID 11320096, PMID 10913289. Particulars: NMR spectroscopy; cited from earlier work.
The target in data set [8] is Ca2+-saturated N-lobe of cTnC. More on the design: method as in PMID 35755445. Particulars: isolated Ca2+-saturated N-lobe of cTnC; cited from earlier work.
The next data set concerns Ca2+-saturated cChimera. Set-up: method as in PMID 35755445. The following applies: cited from earlier work.

A word on the Kd: it is a measure of binding affinity in units of concentration. As a reminder, the solubility is the dissolved amount per volume that the medium holds. Turning to `CC(C)CCCC(C)C1CCC2C3CC(NCCCNCCCCNCCCN)C4CC(O)CCC4(C)C3CCC12C` (stereo not shown) [Claramine], the “Decrease of myofibrilar ATPase activity” value in [1] is reported as 40–50%. Also, on Ca2+-saturated cTnC, the “T∆S” value amounted to 5.21 ± 0.311 kcal/mol, the “∆H” value is -1.1 ± 0.311 kcal/mol and binding was put at a Kd of 21.6 ± 1.8 µM. Moreover, in data set [2], the “Effect on calcium sensitivity / force-pCa relation” value is reported as “no or little effect”. Also, the solubility in data set [3] (aqueous solutions, read-out: Solubility in aqueous solutions) is > 25 mM. For the same molecule, in [4], the “FP at higher drug concentrations” value is given as “sudden increase in the FP”, the “Total fluorescence intensity of the assay mixture” value is recorded as “not affected” and the “Effect on FP from the cTnC FAM-cTnIAR mixture” value is reported as “decreased the FP”. In data set [4] (LOPAC 1280 library), the “FP (mP)” value is listed as 53.9 mP. At cTnC-cTnIAR interaction, the “Effect on the interaction / binding affinity of cTnC for cTnIAR” value was “no or little effect”.
Turning to “FAM-A162H-cTnISP: N-terminally FAM labelled A162H-mutated switch region peptide of human cardiac troponin I, sequence TLRRVRISADAMMQALLGARHKESLDLR”, the Kd in data set [5] is ~10 µM.
Turning to `N=C(N)c1ccc(-c2ccc(-c3ccc(C(=N)N)cc3)o2)cc1` [Furamidine], in [6] (LOPAC 1280 library), the “FP (mP)” value stood at 91.8 mP. The “FP (mP)” value in data set [6] (TOCRIScreen library) is 83.1 mP. In data set [1], the “Decrease of myofibrilar ATPase activity” value is on record as 40–50%. Besides, on Ca2+-saturated cTnC, the “T∆S” value amounted to 1.84 ± 0.72 kcal/mol, the “∆H” value is -4.64 ± 0.758 kcal/mol and the Kd was 11.9 ± 5.5 µM. Further, in data set [2], the “Effect on calcium sensitivity / force-pCa relation” value is “slightly increased the calcium sensitivity”, the “Effect on maximal isometric force development” value is recorded as “no effect” and the “Steepness of the force-pCa relation (nH)” value was “no effect”. In [3], the solubility is > 25 mM. In [4], the “FP at higher drug concentrations” value is recorded as “sudden increase in the FP”, the “Total fluorescence intensity of the assay mixture” value is “not affected” and the “Effect on FP from the cTnC FAM-cTnIAR mixture” value was “decreased the FP”. In addition, the “FP (mP)” value in data set [4] (TOCRIScreen library) came to 73.2 mP. For the same molecule, at cTnC-cTnIAR interaction, the “Effect on the interaction / binding affinity of cTnC for cTnIAR” value was “reduced by several orders of magnitude”.
With `COc1ccc(C(=O)N2CCCc3cc(C4=NNC(=O)SC4C)ccc32)cc1OC` (stereo not shown) [EMD 57033], in the data set with CcTnC, the Affinity entry was “micromolar affinity”. Further, the “Effect on the CcTnC and cTnIAR interaction in vitro” value in data set [7] is listed as “no significant effect”.
On to `O=C(O)c1ccc(-c2ccccc2Nc2cccc(Cl)c2)cc1` [RPI-194], for which the Kd in data set [8] is > 300 µM. Further, the Affinity entry in the data set on Ca2+-saturated cChimera is on record as “low micromolar affinity”.
